Source: patent US11708344B2, “Flavone derivatives for the treatment and prophylaxis of hepatitis B virus disease” (Hoffmann-La Roche Inc., priority 2018, dated 2023)
Where two headings read alike, the source gives them in different places.

Key:
[1] = system: HBeAg (surrogate marker for cccDNA) in HepDES19 cells; test: Engineered HepDES19 primary screen assay (HBeAg ELISA); assay type: cell-based, HBV
Method in brief: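 HepDES19 cells were induced by Tet withdrawal for 8 days, then treated with half-log compound dilutions (1% DMSO final) for 5 days at 37 °C. HBeAg was measured by ELISA as the cccDNA surrogate, viability by CCK-8, and IC50 from a 4-parameter logistic fit.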

[2] = Human microsome stability assay; assay type: in vitro ADME; conditions: human liver microsomes, 1 μM test compound, 0.5 mg/mL microsomal protein, 37° C., pH 7.4, 0-30 minutes
Method in brief: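 Compound (1 μM) incubated at 37 °C with human liver microsomes (0.5 mg/mL protein) in 100 mM potassium phosphate, pH 7.4, after 10 min preincubation; started with NADPH regenerating system. Sampled at 0–30 min, quenched with cold ACN; remaining parent quantified by LC-MS/MS, with no-NADPH controls.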

[3] = Hepatitis B virus, HepDES19, 120 h, read-out: IC50 (HBeAg level, HepDES19 primary screen assay), HepDES19 cells, 5 days compound incubation, HBeAg ELISA

SMILES	IC50 [1, 3] [µM]	Clearance of Human microsome [2] [mL/min/kg]	IC50 ([1]; read-out: IC50 (HBeAg level, HepDES19 primary screen assay), HepDES19 cells, 5 days compound incubation, HBeAg ELISA) [µM]
CCOc1ccc(-c2cc(=O)c3cccc(Cl)c3o2)c(OCCO[C@H]2C[C@@H](C(=O)O)C2)c1 [Example C035-A, Cis-3-[2-[2-(8-chloro-4-oxo-chromen-2-yl)-5-ethoxy-phenoxy]ethoxy]cyclobutanecarboxylic acid]	12.5	8.64	–
CCOc1ccc(-c2cc(=O)c3cccc(Cl)c3o2)c(OCCO[C@H]2C[C@H](C(=O)O)C2)c1 [Example C035-B, Trans-3-[2-[2-(8-chloro-4-oxo-chromen-2-yl)-5-ethoxy-phenoxy]ethoxy]cyclobutanecarboxylic acid]	17.9	9.78	–
O=c1cc(-c2cccc(F)c2OCCO[C@H]2C[C@@H](C(=O)O)C2)oc2c(Cl)cccc12 [Example C037-A, Cis-3-[2-[2-(8-chloro-4-oxo-chromen-2-yl)-6-fluoro-phenoxy]ethoxy]cyclobutanecarboxylic acid]	0.0975	6.15	–
O=c1cc(-c2cccc(F)c2OCCO[C@H]2C[C@H](C(=O)O)C2)oc2c(Cl)cccc12 [Example C037-B, Trans-3-[2-[2-(8-chloro-4-oxo-chromen-2-yl)-6-fluoro-phenoxy]ethoxy]cyclobutanecarboxylic acid]	0.531	6.15	–
Cc1ccc(-c2cc(=O)c3cccc(Cl)c3o2)c(OCCO[C@H]2C[C@H](C(=O)O)C2)c1 [Example C038-B, Trans-3-[2-[2-(8-chloro-4-oxo-chromen-2-yl)-5-methyl-phenoxy]ethoxy]cyclobutanecarboxylic acid]	1.53	6.15	–
COc1ccc(-c2cc(=O)c3cccc(Cl)c3o2)c(OCCO[C@H]2C[C@@H](C(=O)O)C2)c1 [Example C039-A, Cis-3-[2-[2-(8-chloro-4-oxo-chromen-2-yl)-5-methoxy-phenoxy]ethoxy]cyclobutanecarboxylic acid]	8.91	6.15	–
COc1ccc(-c2cc(=O)c3cccc(Cl)c3o2)c(OCCO[C@H]2C[C@H](C(=O)O)C2)c1 [Example C039-B, Trans-3-[2-[2-(8-chloro-4-oxo-chromen-2-yl)-5-methoxy-phenoxy]ethoxy]cyclobutanecarboxylic acid]	17.5	6.15	–
COc1cc(OCCO[C@H]2C[C@@H](C(=O)O)C2)c(-c2cc(=O)c3cccc(Cl)c3o2)cc1Br [Example C040-A, Cis-3-[2-[4-bromo-2-(8-chloro-4-oxo-chromen-2-yl)-5-methoxy-phenoxy]ethoxy]cyclobutanecarboxylic acid]	13.2	8.52	–
O=c1cc(-c2cc(C(F)(F)F)c(Br)cc2OCCO[C@H]2C[C@@H](C(=O)O)C2)oc2c(Cl)cccc12 [Example C042-A]	12.7	7.57	–
O=c1cc(-c2cc(F)c(Br)cc2OCCO[C@H]2C[C@H](C(=O)O)C2)oc2c(Cl)cccc12 [Example C044-B, Trans-3-[2-[5-bromo-2-(8-chloro-4-oxo-chromen-2-yl)-4-fluoro-phenoxy]ethoxy]cyclobutanecarboxylic acid]	1.57	9.33	–
O=c1cc(-c2ccc(F)cc2OCCO[C@H]2C[C@@H](C(=O)O)C2)oc2c(Cl)cc(F)cc12 [Example C045-A, Cis-3-[2-[2-(8-chloro-6-fluoro-4-oxo-chromen-2-yl)-5-fluoro-phenoxy]ethoxy]cyclobutanecarboxylic acid]	2.62	6.53	–
O=c1cc(-c2ccc(F)cc2OCCO[C@H]2C[C@H](C(=O)O)C2)oc2c(Cl)cc(F)cc12 [Example C045-B, Trans-3-[2-[2-(8-chloro-6-fluoro-4-oxo-chromen-2-yl)-5-fluoro-phenoxy]ethoxy]cyclobutanecarboxylic acid]	2.88	9.43	–
O=c1cc(-c2ccccc2OCCO[C@H]2C[C@H](C(=O)O)C2)oc2c(Br)cccc12 [Example C046-B, Trans-3-[2-[2-(8-bromo-4-oxo-chromen-2-yl)phenoxy]ethoxy]cyclobutanecarboxylic acid]	–	6.15	0.251
O=c1cc(-c2ccccc2OCCO[C@H]2C[C@@H](C(=O)O)C2)oc2c(C(F)(F)F)cccc12 [Example C047-A, Cis-3-[2-[2-[4-oxo-8-(trifluoromethyl)chromen-2-yl]phenoxy]ethoxy]cyclobutanecarboxylic acid]	16.6	6.15	–
O=c1cc(-c2ccccc2OCCO[C@H]2C[C@H](C(=O)O)C2)oc2c(C(F)(F)F)cccc12 [Example C047-B, Trans-3-[2-[2-[4-oxo-8-(trifluoromethyl)chromen-2-yl]phenoxy]ethoxy]cyclobutanecarboxylic acid]	14	6.15	–
Cc1ccc(OCCO[C@H]2C[C@@H](C(=O)O)C2)c(-c2cc(=O)c3cccc(Cl)c3o2)c1 [Example C050-A, Cis-3-[2-[2-(8-chloro-4-oxo-chromen-2-yl)-4-methyl-phenoxy]ethoxy]cyclobutanecarboxylic acid]	15.6	6.15	–
Cc1ccc(OCCO[C@H]2C[C@H](C(=O)O)C2)c(-c2cc(=O)c3cccc(Cl)c3o2)c1 [Example C050-B, Trans-3-[2-[2-(8-chloro-4-oxo-chromen-2-yl)-4-methyl-phenoxy]ethoxy]cyclobutanecarboxylic acid]	0.137	6.15	–
CCOc1ccc(OCCO[C@H]2C[C@@H](C(=O)O)C2)c(-c2cc(=O)c3cccc(Cl)c3o2)c1 [Example C051-A, Cis-3-[2-[2-(8-chloro-4-oxo-chromen-2-yl)-4-ethoxy-phenoxy]ethoxy]cyclobutanecarboxylic acid]	4.14	6.15	–
CCOc1ccc(OCCO[C@H]2C[C@H](C(=O)O)C2)c(-c2cc(=O)c3cccc(Cl)c3o2)c1 [Example C051-B, Trans-3-[2-[2-(8-chloro-4-oxo-chromen-2-yl)-4-ethoxy-phenoxy]ethoxy]cyclobutanecarboxylic acid]	9.41	7.85	–
O=c1cc(-c2ccc(OC(F)(F)F)cc2OCCO[C@H]2C[C@@H](C(=O)O)C2)oc2c(Cl)cccc12 [Example C052-A, Cis-3-[2-[2-(8-chloro-4-oxo-chromen-2-yl)-5-(trifluoromethoxy)phenoxy]ethoxy]cyclobutanecarboxylic acid]	5.99	9.08	–
O=c1cc(-c2ccc(Br)cc2OCCCO[C@H]2C[C@@H](C(=O)O)C2)oc2c(Cl)cccc12 [Example C056-A, Cis-3-[3-[5-bromo-2-(8-chloro-4-oxo-chromen-2-yl)phenoxy]propoxy]cyclobutanecarboxylic acid]	2.39	6.15	–
O=c1cc(-c2cc(Cl)c(Br)cc2OCCO[C@H]2C[C@@H](C(=O)O)C2)oc2c(Cl)cccc12 [Example C057-A, Cis-3-[2-[5-bromo-4-chloro-2-(8-chloro-4-oxo-chromen-2-yl)phenoxy]ethoxy]cyclobutanecarboxylic acid]	5.01	8.0	–
COc1ccc(OCCOC2CC(C(=O)O)C2)c(-c2cc(=O)c3cccc(Cl)c3o2)c1 (centres unmarked) [Example C060, 3-[2-[2-(8-chloro-4-oxo-chromen-2-yl)-4-methoxy-phenoxy]ethoxy]cyclobutanecarboxylic acid]	9.81	6.15	–
O=c1cc(-c2ccc(N3CCCC3)cc2OCCO[C@H]2C[C@@H](C(=O)O)C2)oc2c(Cl)cccc12 [Example C068, cis-3-[2-[2-(8-chloro-4-oxo-chromen-2-yl)-5-pyrrolidin-1-yl-phenoxy]ethoxy]cyclobutanecarboxylic acid]	4.74	6.15	–
O=c1cc(-c2cccc(Br)c2OCCO[C@H]2C[C@@H](C(=O)O)C2)oc2c(Cl)cc(F)cc12 [Example C070, Cis-3-[2-[2-bromo-6-(8-chloro-6-fluoro-4-oxo-chromen-2-yl)phenoxy]ethoxy]cyclobutanecarboxylic acid]	13.1	9.42	–
O=c1cc(-c2c(F)cc(Br)cc2OCCO[C@H]2C[C@@H](C(=O)O)C2)oc2c(Cl)cccc12 [Example C071, Cis-3-[2-[5-bromo-2-(8-chloro-4-oxo-chromen-2-yl)-3-fluoro-phenoxy]ethoxy]cyclobutanecarboxylic acid]	10.8	6.15	–
COc1cc(OCCO[C@H]2C[C@@H](C(=O)O)C2)c(-c2cc(=O)c3cccc(Cl)c3o2)cc1OC [Example C072, Cis-3-[2-[2-(8-chloro-4-oxo-chromen-2-yl)-4,5-dimethoxy-phenoxy]ethoxy]cyclobutanecarboxylic acid]	6.31	6.15	–
O=c1cc(-c2cc3c(cc2OCCO[C@H]2C[C@@H](C(=O)O)C2)OCCO3)oc2c(Cl)cccc12 [Example C074, Cis-3-[2-[[7-(8-chloro-4-oxo-chromen-2-yl)-2,3-dihydro-1,4-benzodioxin-6-yl]oxy]ethoxy]cyclobutanecarboxylic acid]	7.28	6.15	–
